The results in this text go back to patent publication US20170280720A1, “ARGININE […] INHIBITORS AND USES THEREOF” (EPIZYME, INC., priority 2014, published 2017).

One experiment deals with T1, Human CARM1 (PRMT4) (Homo sapiens, UniProt Q86X55).
T1 construct: Flag-CARM1-His; made in house; host or cells: HEK 293F cells (BacMam baculovirus, pFastBacMam)
T1 sequence (Q86X55 2-585 isoform Q86X55-1): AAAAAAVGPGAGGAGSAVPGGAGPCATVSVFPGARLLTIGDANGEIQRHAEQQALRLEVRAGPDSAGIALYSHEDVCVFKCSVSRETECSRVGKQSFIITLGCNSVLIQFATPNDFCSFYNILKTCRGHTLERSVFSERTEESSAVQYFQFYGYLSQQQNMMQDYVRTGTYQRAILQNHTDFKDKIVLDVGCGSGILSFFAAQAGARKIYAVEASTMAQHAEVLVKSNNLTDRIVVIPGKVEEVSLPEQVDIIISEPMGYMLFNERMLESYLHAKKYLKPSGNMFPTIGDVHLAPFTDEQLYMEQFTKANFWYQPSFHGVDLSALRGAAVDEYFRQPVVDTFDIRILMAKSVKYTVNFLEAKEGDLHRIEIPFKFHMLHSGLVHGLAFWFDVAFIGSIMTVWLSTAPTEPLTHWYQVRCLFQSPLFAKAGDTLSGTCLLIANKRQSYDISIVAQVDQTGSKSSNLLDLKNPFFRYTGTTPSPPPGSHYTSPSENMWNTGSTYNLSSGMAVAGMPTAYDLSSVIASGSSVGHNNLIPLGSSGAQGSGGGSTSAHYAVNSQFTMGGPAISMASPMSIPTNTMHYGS
The experiment can be described thus: CARM1 biochemical assay (3H-SAM Flashplate, peptide substrate). To be noted: read-out: CARM1_ IC50. In a few lines: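 FLAG/His-tagged human CARM1 (isoform 1, Δ539-561, baculovirus-expressed), 0.25 nM, preincubated 30 min at room temperature with compound (2% DMSO) in 20 mM Bicine pH 7.6, then reacted with 30 nM 3H-SAM and 250 nM biotinylated H3 16-30 peptide (R26 monomethyl). Stopped with 300 uM cold SAM; labelled peptide captured on streptavidin Flashplate; % inhibition versus DMSO and 1 mM SAH controls fitted to a 4- or 3-parameter curve.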

The next experiment has as its target PRMT5 (Homo sapiens, UniProt O14744). As to the kind of experiment: PRMT5 IC50 (Table 2; no method described). In kind it is biochemical. The conditions noted are these: read-out: PRMT5_ IC50.

A word on the IC50: it is the concentration that gives 50% inhibition.

SMILES strings stand for the structures.

Chain of PRMT5 (O14744 whole entry, species assumed): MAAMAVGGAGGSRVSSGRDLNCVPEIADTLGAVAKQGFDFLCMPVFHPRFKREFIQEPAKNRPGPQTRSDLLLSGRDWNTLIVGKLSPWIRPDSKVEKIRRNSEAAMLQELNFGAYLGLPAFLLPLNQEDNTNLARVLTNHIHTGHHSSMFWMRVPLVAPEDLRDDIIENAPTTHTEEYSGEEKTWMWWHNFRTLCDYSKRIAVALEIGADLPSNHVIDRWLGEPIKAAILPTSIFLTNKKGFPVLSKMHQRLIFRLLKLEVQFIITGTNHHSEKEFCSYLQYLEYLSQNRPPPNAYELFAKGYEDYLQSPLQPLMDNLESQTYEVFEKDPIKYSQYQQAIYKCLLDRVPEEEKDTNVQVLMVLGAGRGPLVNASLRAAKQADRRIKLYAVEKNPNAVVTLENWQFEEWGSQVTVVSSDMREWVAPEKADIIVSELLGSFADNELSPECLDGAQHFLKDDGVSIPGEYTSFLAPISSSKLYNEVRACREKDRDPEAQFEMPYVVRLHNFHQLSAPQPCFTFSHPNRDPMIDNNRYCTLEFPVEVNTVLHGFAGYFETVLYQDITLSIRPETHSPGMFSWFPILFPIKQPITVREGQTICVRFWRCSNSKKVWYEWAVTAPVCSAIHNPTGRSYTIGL
Chain of PRMT5 (Q9BQA1 whole entry partner, species assumed): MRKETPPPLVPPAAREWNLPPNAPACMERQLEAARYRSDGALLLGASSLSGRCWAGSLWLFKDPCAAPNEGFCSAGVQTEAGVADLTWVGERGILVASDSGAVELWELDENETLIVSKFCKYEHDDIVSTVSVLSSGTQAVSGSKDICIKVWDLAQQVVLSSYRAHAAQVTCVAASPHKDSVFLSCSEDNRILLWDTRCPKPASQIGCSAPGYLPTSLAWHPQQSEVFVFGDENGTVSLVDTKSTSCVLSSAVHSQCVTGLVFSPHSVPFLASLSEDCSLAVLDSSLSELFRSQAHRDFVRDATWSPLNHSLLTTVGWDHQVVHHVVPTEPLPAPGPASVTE

`CNCCN(C)Cc1cccc(-c2cc(C(=O)NCCCCC(=O)NCc3c(C)cc(C)[nH]c3=O)c3cnn(C(C)C)c3n2)c1` [Compound 385]: at Human CARM1 (PRMT4), the IC50 is 0.00711 µM.

For `Cc1cc(C)c(CNC(=O)c2cc(-c3cccc(CNCCN)c3)nc3c2cnn3C(C)C)c(=O)[nH]1` [Compound 365], the IC50 turned out to be 0.0144 µM on Human CARM1 (PRMT4) and 49 µM on PRMT5.

For the molecule `COc1nc(C)cc(C)c1CNC(=O)c1cc(-c2cccc(CN(C)CCN(C)C)c2)nc2c1cnn2C(C)C` [Compound 386], the IC50 on Human CARM1 (PRMT4) amounted to 0.209 µM.

`Cc1cc(C)c(CNC(=O)c2cncc(-c3ccc(CN(C)CCN)cc3)c2)c(=O)[nH]1` [Compound 374]: the IC50 was 9.83 µM on Human CARM1 (PRMT4) and 44.3 µM on PRMT5.

As to `COc1nc(C)cc(C)c1CNC(=O)c1cc(-c2cccc(CNCCN)c2)nc2c1cnn2C(C)C` [Compound 391], the IC50 on Human CARM1 (PRMT4) is 0.141 µM; at PRMT5 it was 30.5 µM.

With `CNCCN(C)Cc1cccc(-c2cc(C(=O)NCCCCCC(=O)NCc3c(C)cc(C)[nH]c3=O)c3cnn(C(C)C)c3n2)c1` [Compound 382], the IC50 at Human CARM1 (PRMT4) amounted to 0.00901 µM.

Regarding `CNCCN(C)Cc1ccc(-c2cc(C(=O)NCc3c(C)cc(C)[nH]c3=O)c(C)c3nn(C4CCCC4)cc23)cc1` [Compound 370], at Human CARM1 (PRMT4), the IC50 came to 7.26 µM.

As for `Cc1cc(C)c(CNC(=O)c2cc(-c3cccc(CN(C)CCN)c3)nc3c2cnn3C(C)C)c(=O)[nH]1` [Compound 360], the IC50 at Human CARM1 (PRMT4) came out at 0.0195 µM; on PRMT5 it was 15.4 µM.

`CNCCN(C)Cc1cccc(-c2cc(C(=O)NCc3c(C)cc(C)[nH]c3=O)c(C)c3[nH]ncc23)c1` [Compound 372]: the IC50 at Human CARM1 (PRMT4) came to 4.31 µM.

With `Cc1cc(C)c(CNC(=O)c2cc(-c3cccc(CN(C)CCN(C)C)c3)nc3c2cnn3C(C)C)c(=O)[nH]1` [Compound 361], the IC50 on Human CARM1 (PRMT4) was determined as 0.254 µM.

In the case of `CNCCN(C)Cc1ccc(-c2cncc(C(=O)NCc3c(C)cc(C)[nH]c3=O)c2)cc1` [Compound 373], the IC50 amounted to 5.77 µM on Human CARM1 (PRMT4) and 14.7 µM at PRMT5.

With `CNCCN(C)Cc1cccc(-c2cc(C(=O)NCCCC(=O)NCc3c(C)cc(C)[nH]c3=O)c3cnn(C(C)C)c3n2)c1` [Compound 383], the IC50 on Human CARM1 (PRMT4) is 0.00839 µM.

In the case of `CNCCN(C)Cc1cccc(-c2cc(C(=O)NCc3c(C)cc(C)[nH]c3=O)c3cnn(C(C)C)c3n2)c1` [Compound 368], on Human CARM1 (PRMT4), the IC50 was 0.00611 µM.

On to `CNCCN(C)Cc1cccc(-c2nc(NCc3nccs3)c3cnn(C4CC4)c3n2)c1` [Compound 2], for which the IC50 at Human CARM1 (PRMT4) came to 0.0168 µM.

Take `Cc1cc(C)c(CNC(=O)c2cncc(-c3ccc(CN(C)CCN(C)C)cc3)c2)c(=O)[nH]1` [Compound 378]: the IC50 on Human CARM1 (PRMT4) is 19.6 µM; at PRMT5 it was 66.6 µM.

As to `CNCCN(C)Cc1ccc(-c2cc(C(=O)NCc3c(C)cc(C)[nH]c3=O)c(C)c3n[nH]cc23)cc1` [Compound 362], the concentration for half-maximal inhibition (IC50) at Human CARM1 (PRMT4) was determined as 1.98 µM.

For the molecule `CNCCN(C)Cc1cccc(-c2nc(C(=O)NCc3cn4ccsc4n3)c3cnn(C4CC4)c3n2)c1` [Compound 180], the figures for the IC50 at Human CARM1 (PRMT4) and on PRMT5 were 0.0089 µM and 200 µM, respectively.

Take `CNCCN(C)Cc1cccc(-c2cc(C(=O)N(C)Cc3ccccn3)c3cnn(C(C)C)c3n2)c1` [Compound 300]: the results for the IC50 on Human CARM1 (PRMT4) and on PRMT5 were 0.205 µM and 34.3 µM, respectively.

For the molecule `CNCCN(C)Cc1cccc(-c2cc(C(=O)NCc3c(C)cc(C)[nH]c3=O)c3cnn(C(C)C)c3c2)c1` [Compound 367], the 50% inhibitory concentration (IC50) on Human CARM1 (PRMT4) amounted to 0.184 µM.

For the molecule `CC(C)n1ncc2c(C(=O)N(C)CC3CCOCC3)cc(-c3cccc(CN(C)CCN)c3)nc21` [Compound 256], the IC50 at Human CARM1 (PRMT4) is 0.0631 µM; on PRMT5, 50 µM.

With `Cc1cc(C)c(CNC(=O)c2cc(-c3ccc(CNCCN(C)C)cc3)nc3c2cnn3C(C)C)c(=O)[nH]1` [Compound 359], the IC50 on Human CARM1 (PRMT4) stood at 50 µM.

Consider `CNCCN(C)Cc1cccc(-c2cc(C(=O)NCc3ccncc3)c3cnn(C(C)C)c3n2)c1` [Compound 182], for which the IC50 is 0.0103 µM at Human CARM1 (PRMT4) and 12.1 µM at PRMT5.

For `Cc1cc(C)c(CNC(=O)c2cncc(-c3ccc(CNCCN)cc3)c2)c(=O)[nH]1` [Compound 379], the IC50 at Human CARM1 (PRMT4) amounted to 6.57 µM; on PRMT5, 2.12 µM.

As for `CNCCN(C)Cc1cccc(-c2cc(C(=O)NCCC(=O)NCc3c(C)cc(C)[nH]c3=O)c3cnn(C(C)C)c3n2)c1` [Compound 384], the IC50 on Human CARM1 (PRMT4) is 0.0188 µM.

As for `Cc1cc(C)c(CNC(=O)c2cc(CNCCN(C)C)cc3c2cnn3C2CCCC2)c(=O)[nH]1` [Compound 371], the IC50 on Human CARM1 (PRMT4) turned out to be 28.3 µM.

Consider `CN(CCN)Cc1cccc(-c2ccc(C(=O)NCC3CCOCC3)c(N(C)CC3CC3)c2)c1` [Compound 263], for which the IC50 at Human CARM1 (PRMT4) worked out at 0.0722 µM; at PRMT5, 7.73 µM.

On to `Cc1cc(C)c(CNC(=O)c2cc(-c3cccc(CNCCN)c3)cc3[nH]ncc23)c(=O)[nH]1` [Compound 366], for which the IC50 at Human CARM1 (PRMT4) worked out at 1.39 µM; on PRMT5, 4.2 µM.
